# Assays:
# Assay type in all cases: biochemical
# EGFR = target: T1, EGFR (Homo sapiens, UniProt P00533); test: Kinase activity inhibition assay (HTRF TK Kit), selectivity
# T1 construct: purchased Carna 08-115
# Text: (§1) In this assay, the HTRF TK Kit (Catalog No. 62TK0PEC) provided by Cisbio was used to detect the inhibitory activity of compounds on BTK kinase, BTK T474I kinase and BTK C481 S kinase and the selectivity of compounds relative to EGFR, ITK and TEC kinases.
# (§2) Reagents and consumables: BTK kinase (Invitrogen, Catalog No. PV3587), BTK C481S (Carna, Product No. 08-547), BTK T474I(SignalChem Product No. B10-12HH), ITK (Cama, Product No. 08-181), EGFR (Cama, Product No. 08-115), TEC (Carna, Product No. 08-182), HTRF-TK kit (Cisbio, Product No. 62TK0PEC), MgCl2 (Sigma, Product No. M1028), MnCl2 (Sigma, Product No. M1787), DTT (Sigma, Product No. D0632), ATP (Sigma, Product No. A7699-1g), DMSO (Sigma, Product No. D2650), 384-well plate (PE, Product No. 6008280).
# (§3) The entire operation steps were carried out on ice, and the total reaction volume was 10µL. A compound (4µL), substrate and ATP (4µL), and kinase (2µL) were added in sequence to a 384-well plate, and the plate was shaken for 30 seconds. The mixture was reacted at room temperature for an appropriate time, and then the detection reagent was added. The resulting mixture was reacted at room temperature for 1 hour, and then the plate was assayed with a microplate reader. The specific steps were as follows: • a) a 1 × kinase buffer solution required for the kinase assay was calculated according to the amount of the test compound, and prepared as needed; • b) 2.5 × working concentration of a compound was prepared, 100-fold gradient concentration solutions of a compound were diluted by 40 × to the desired concentration, respectively, mixed well, and added to each well at 4 µL per well; • c) 5 × working concentration of the substrate and ATP were prepared, mixed in a ratio of 1:1 before being added to the 384-well plate, and added to each well at 4 µL per well; • d) 5 × working concentration of a kinase was prepared, 2 µL of which was added to each well; • e) the plate was shaken on a microplate shaker for 30 seconds, sealed with a sealing membrane, and the mixture was reacted at room temperature for an appropriate time; • f) 4 × working concentration of streptavidin XL-665 and TK antibody-cryptate compound were prepared, mixed in a ratio of 1:1 before being added to the 384-well plate, and added to each well at 10 µL per well; • g) the mixture was reacted at room temperature for 1 hour, and then the plate was read; • h) the wells with only substrate, ATP and 1% DMSO added but no kinase were blank control wells, and the wells with only substrate, ATP, 1% DMSO and kinase were positive control wells.
# (§4) Readings: The values of 620 nm (cryptate) and 665 nm (XL665) were read with a BioTek Synerg Neo2 microplate reader, the ratio of 665/620 for each well was calculated, and the data were exported.
# (§5) Data analysis: IC50 was calculated using GraphPad Prism 7.0 software.
# (§6) The IC50 (half-maximal inhibitory concentration) of the compound was obtained using the following nonlinear fitting formula: Y = Bottom + (Top−Bottom)/(1+10^(∧)((LogIC50−X)*HillSlope)) [formula] • X: Log value of the compound concentration • Y: Inhibition rate (% inhibition) • Top: Maximum response • Bottom: Baseline response • HillSlope: Slope of the curve
# (§7) The formula for calculating kinase inhibition rate (inhibition rate %) was: [formula]
# ITK = target: T2, ITK (Homo sapiens, UniProt Q08881); test: as above
# T2 construct: purchased Carna 08-181
# T2 sequence (Q08881 1-620): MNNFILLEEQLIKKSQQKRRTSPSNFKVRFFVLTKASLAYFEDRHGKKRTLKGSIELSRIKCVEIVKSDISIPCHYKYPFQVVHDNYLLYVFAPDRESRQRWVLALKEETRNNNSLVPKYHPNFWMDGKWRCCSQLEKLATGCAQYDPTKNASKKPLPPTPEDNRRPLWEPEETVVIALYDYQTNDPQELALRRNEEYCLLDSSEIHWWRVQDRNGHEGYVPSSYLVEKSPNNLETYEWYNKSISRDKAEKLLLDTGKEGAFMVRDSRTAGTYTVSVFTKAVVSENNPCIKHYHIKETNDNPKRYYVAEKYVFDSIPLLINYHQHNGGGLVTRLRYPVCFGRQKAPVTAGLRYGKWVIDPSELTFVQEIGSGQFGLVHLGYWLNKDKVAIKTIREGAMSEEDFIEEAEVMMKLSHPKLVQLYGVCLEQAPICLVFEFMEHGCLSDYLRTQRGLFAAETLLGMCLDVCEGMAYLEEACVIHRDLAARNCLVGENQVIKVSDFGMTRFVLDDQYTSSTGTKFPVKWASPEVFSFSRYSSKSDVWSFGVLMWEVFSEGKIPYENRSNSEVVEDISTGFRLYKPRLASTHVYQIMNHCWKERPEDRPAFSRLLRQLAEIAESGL
# Text: as §1, §2, §3, §4, §5, §6, §7
# TEC = target: T3, TEC (Homo sapiens, UniProt P42680); test: as above
# T3 construct: purchased Carna 08-182
# T3 sequence (P42680 1-631): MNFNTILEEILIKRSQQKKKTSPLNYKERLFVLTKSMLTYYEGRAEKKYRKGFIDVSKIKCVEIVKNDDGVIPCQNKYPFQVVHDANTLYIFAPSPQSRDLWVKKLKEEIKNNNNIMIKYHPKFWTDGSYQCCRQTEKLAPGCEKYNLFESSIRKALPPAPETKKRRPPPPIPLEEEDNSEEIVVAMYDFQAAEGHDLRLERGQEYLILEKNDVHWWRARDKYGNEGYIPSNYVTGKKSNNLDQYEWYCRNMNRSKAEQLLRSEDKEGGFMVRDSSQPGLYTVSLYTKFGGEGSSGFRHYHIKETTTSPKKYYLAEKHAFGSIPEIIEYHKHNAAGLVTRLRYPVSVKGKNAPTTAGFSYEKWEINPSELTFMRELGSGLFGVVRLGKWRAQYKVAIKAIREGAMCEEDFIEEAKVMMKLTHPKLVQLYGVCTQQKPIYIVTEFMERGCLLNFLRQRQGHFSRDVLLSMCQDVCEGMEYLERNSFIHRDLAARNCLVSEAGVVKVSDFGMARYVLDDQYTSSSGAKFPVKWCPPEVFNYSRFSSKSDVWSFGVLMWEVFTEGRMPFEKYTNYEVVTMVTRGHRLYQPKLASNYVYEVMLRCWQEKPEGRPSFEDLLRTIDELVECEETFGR
# Text: as §1, §2, §3, §4, §5, §6, §7
# BTK T474I = target: T4, BTK T474I (Homo sapiens, UniProt Q06187, T474I); test: Kinase activity inhibition assay (HTRF TK Kit)
# T4 construct: purchased SignalChem B10-12HH
# Text: as §1, §2, §3, §4, §5, §6, §7
# BTK kinase = target: T5, BTK kinase (Homo sapiens, UniProt Q06187); test: Kinase activity inhibition assay (HTRF TK Kit)
# T5 construct: purchased Invitrogen PV3587
# Text: as §1, §2, §3, §4, §5, §6, §7
# BTK C481S = target: T6, BTK C481S (Homo sapiens, UniProt Q06187, C481S); test: Kinase activity inhibition assay (HTRF TK Kit)
# T6 construct: purchased Carna 08-547
# Text: as §1, §2, §3, §4, §5, §6, §7
# T6 sequence (Q06187 whole entry C481S): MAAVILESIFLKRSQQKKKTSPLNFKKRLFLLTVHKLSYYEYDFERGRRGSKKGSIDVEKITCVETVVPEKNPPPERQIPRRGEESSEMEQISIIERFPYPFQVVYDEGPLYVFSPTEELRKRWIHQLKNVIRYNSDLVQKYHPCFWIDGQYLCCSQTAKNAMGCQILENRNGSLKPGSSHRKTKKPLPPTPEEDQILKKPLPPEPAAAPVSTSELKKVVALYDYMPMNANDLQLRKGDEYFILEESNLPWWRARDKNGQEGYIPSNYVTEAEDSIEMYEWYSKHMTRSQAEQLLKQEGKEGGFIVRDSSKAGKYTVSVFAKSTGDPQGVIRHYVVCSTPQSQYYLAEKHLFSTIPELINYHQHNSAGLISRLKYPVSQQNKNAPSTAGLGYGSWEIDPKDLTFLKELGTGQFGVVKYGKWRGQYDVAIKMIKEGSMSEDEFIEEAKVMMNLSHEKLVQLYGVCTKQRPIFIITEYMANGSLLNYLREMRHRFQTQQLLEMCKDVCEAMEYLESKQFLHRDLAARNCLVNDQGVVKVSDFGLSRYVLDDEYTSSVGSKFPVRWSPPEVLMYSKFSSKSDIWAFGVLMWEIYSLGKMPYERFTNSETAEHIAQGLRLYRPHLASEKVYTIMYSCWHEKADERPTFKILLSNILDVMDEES
# T5 sequence (Q06187 whole entry): as the sequence (Q06187 whole entry C481S) above, with S481C counted along it
# T4 sequence (Q06187 whole entry T474I): as the sequence (Q06187 whole entry C481S) above, with T474I, S481C counted along it
# T1 sequence (P00533 669-1210 limits assumed): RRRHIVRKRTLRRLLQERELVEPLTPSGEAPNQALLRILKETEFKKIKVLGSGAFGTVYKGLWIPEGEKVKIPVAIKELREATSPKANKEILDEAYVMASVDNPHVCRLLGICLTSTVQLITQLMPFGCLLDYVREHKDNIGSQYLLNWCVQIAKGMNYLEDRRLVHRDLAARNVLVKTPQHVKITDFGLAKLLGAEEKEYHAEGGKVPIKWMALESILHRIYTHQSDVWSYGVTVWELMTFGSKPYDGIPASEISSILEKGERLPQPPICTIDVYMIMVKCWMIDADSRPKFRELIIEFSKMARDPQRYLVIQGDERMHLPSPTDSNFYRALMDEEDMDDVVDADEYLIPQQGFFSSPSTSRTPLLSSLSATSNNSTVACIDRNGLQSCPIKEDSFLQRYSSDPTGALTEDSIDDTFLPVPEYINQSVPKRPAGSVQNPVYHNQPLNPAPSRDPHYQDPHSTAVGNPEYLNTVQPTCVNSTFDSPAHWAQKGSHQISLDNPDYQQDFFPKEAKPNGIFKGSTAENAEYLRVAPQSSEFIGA
SMILES,IC50 (EGFR),IC50 (ITK),IC50 (TEC),IC50 (BTK T474I),IC50 (BTK kinase),IC50 (BTK C481S)
"COc1ccc(F)cc1C(=O)NCc1ccc(-c2ncc(-c3ncccn3)c3[nH]nc(N)c23)cc1 [Example 17, N-(4-(3-amino-7-(pyrimidin-2-yl)-1H-pyrazolo[4,3-c]pyridin-4-yl)benzyl)-5-fluoro-2-methoxybenzamide]",> 500 nM,> 500 nM,5 to 50 nM,50 to 500 nM,1 to 5 nM,1 to 5 nM
"COc1ccc(F)cc1C(=O)NCc1ccc(-c2ncc(-c3cnccn3)c3[nH]nc(N)c23)cc1 [Example 18, N-(4-(3-amino-7-(pyrazin-2-yl)-1H-pyrazolo[4,3-c]pyridin-4-yl)benzyl)-5-fluoro-2-methoxybenzamide]",> 500 nM,> 500 nM,50 to 500 nM,50 to 500 nM,5 to 50 nM,1 to 5 nM
COc1ccc(F)cc1C(=O)NCc1ccc(-c2ncc(-c3ccncn3)c3[nH]nc(N)c23)cc1 [Example 19],> 500 nM,> 500 nM,50 to 500 nM,50 to 500 nM,1 to 5 nM,1 to 5 nM
"COc1ccc(F)cc1C(=O)NCc1ccc(-c2ncc(-c3ccc(F)cn3)c3[nH]nc(N)c23)cc1 [Example 21, N-(4-(3-amino-7-(5-fluoropyridin-2-yl)-1H-pyrazolo[4,3-c]pyridin-4-yl)benzyl)-5-fluoro-2-methoxybenzamide]",> 500 nM,> 500 nM,50 to 500 nM,50 to 500 nM,1 to 5 nM,5 to 50 nM
"COc1ccc(F)cc1C(=O)NCc1ccc(-c2ncc(-c3cnn(C)c3)c3[nH]nc(N)c23)cc1 [Example 22, N-(4-(3-amino-7-(1-methyl-1H-pyrazol-4-yl)-1H-pyrazolo[4,3-c]pyridin-4-yl)benzyl)-5-fluoro-2-oxybenzamide]",> 500 nM,> 500 nM,> 500 nM,50 to 500 nM,5 to 50 nM,5 to 50 nM
"COc1ccc(F)cc1C(=O)NCc1ccc(-c2ncc(-c3ccn(C)n3)c3[nH]nc(N)c23)cc1 [Example 23, N-(4-(3-amino-7-(1-methyl-1H-pyrazol-3-yl)-1H-pyrazolo[4,3-c]pyridin-4-yl)benzyl)-5-fluoro-2-methoxybenzamide]",50 to 500 nM,> 500 nM,5 to 50 nM,50 to 500 nM,≤ 1 nM,≤ 1 nM
"COc1ccc(F)cc1C(=O)NCc1ccc(-c2ncc(-c3ccc(C(F)(F)F)cn3)c3[nH]nc(N)c23)cc1 [Example 24, N-(4-(3-amino-7-(5-(trifluoromethyl)pyridin-2-yl)-1H-pyrazolo[4,3-c]pyridin-4-yl)benzyl)-5-fluoro-2-methoxybenzamide]",> 500 nM,> 500 nM,50 to 500 nM,50 to 500 nM,5 to 50 nM,5 to 50 nM
"COc1ccc(F)cc1C(=O)NCc1ccc(-c2ncc(-c3ccn(CC(=O)N(C)C)n3)c3[nH]nc(N)c23)cc1 [Example 25, N-(4-(3-amino-7-(1-(2-(dimethylamino)-2-oxoethyl)-1H-pyrazol-3-yl)-1H-pyrazolo[4,3-c]pyridin-4-yl)benzyl)-5-fluoro-2-methoxybenzamide]",50 to 500 nM,> 500 nM,50 to 500 nM,50 to 500 nM,1 to 5 nM,1 to 5 nM
"CNC(=O)Cn1ccc(-c2cnc(-c3ccc(CNC(=O)c4cc(F)ccc4OC)cc3)c3c(N)n[nH]c23)n1 [Example 26, N-(4-(3-amino-7-(1-(2-(methylamino)-2-oxoethyl)-1H-pyrazol-3-yl)-1H-pyrazolo[4,3-c]pyridin-4-yl)benzyl)-5-fluoro-2-methoxybenzamide]",50 to 500 nM,> 500 nM,50 to 500 nM,50 to 500 nM,1 to 5 nM,1 to 5 nM

# Source: EP4741392A1, “1H-PYRAZOLO[4,3-C]PYRIDINE COMPOUND, AND COMPOSITION THEREOF AND USE THEREOF” (Shenzhen TargetRx Co., Ltd., priority 2023, dated 2025)
